{"source": "patent US20050004011A1", "about": "“Compositions and methods for treating bacterial infections with protein-dalbavancin complexes” (priority 2002, published 2005)", "key": {"[1]": {"system": "skin and soft tissue infections (SSTI)", "assay": "Phase II trial in deep skin and soft tissue infections: clinical response", "format": "in vivo, human", "description": "This randomized, controlled study evaluated the safety and efficacy of two dose regimens of dalbavancin.\nThere were 62 patients randomized into the study; all received at least one dose of study medication. Four study populations were evaluated for safety and efficacy and were defined as follows: The intent-to-treat (ITT) population included all patients who received at least one dose of study drug (all randomized study subjects).\nThe effectiveness of the three treatment regimens was determined by assessing the patients' clinical response and the documented or presumed microbiological responses. The primary efficacy endpoint was clinical response at the follow-up visit for the clinically evaluable population. Clinical response, for both EOT and FU visits, was categorized as success (cure or improvement) or failure (including indeterminate results). Patients classified as successes must not have received additional systemic antibacterial treatment for their infection. Failure was defined as persistence of one or more local or systemic signs and symptoms of SSTI such that treatment with new or additional systemic antibacterial agents was required for the SSTI."}, "[2]": {"assay": "Phase II SSTI trial: adverse events", "format": "in vivo, human", "description": "Each patient who received at least one dose of study drug (ITT population) was evaluated for drug safety through monitoring of adverse events (AE), including abnormal clinical laboratory test results and vital signs. AE were rated by the investigator as to their severity (mild, moderate, severe, life-threatening), and by the relationship to the study drug (not related, unlikely related, possibly related, or probably related)."}, "[3]": {"assay": "Pharmacokinetics and renal excretion in healthy subjects", "format": "in vivo, human", "description": "Blood samples were drawn into heparinized tubes and centrifuged. Plasma was separated and stored frozen at −20° C. until time of assay. Plasma and urine samples were assayed for dalbavancin using validated LC/MS/MS methods. […] The peak concentration (Cmax) values were obtained directly from the observed data. The area under the plasma concentration-time curve (AUC) was calculated using the linear trapezoidal rule. Clearance (CL) was computed as dose/AUC. The elimination half life (t1/2) was estimated by linear regression of the log-linear portion of the log concentration versus time curve. Estimates of the volume of distribution (Vz) was calculated using the regression parameters, while the volume of distribution at steady state (Vss) was calculated from the area under the first moment curve (AUMC) multiplied by the dose and divided by AUC. The cumulative amount of dalbavancin excreted in urine was determined as the integrand of the urine excretion rate (AURC). CLR, or renal clearance, was calculated as the ratio: CLR=AURC/AUC."}, "[4]": {"assay": "Safety assessments in healthy subjects", "format": "in vivo, human", "conditions": "single 1000 mg IV", "quoted_text": "Adverse events were recorded and assessed for severity and relationship to study drug. Laboratory data (chemistry panel, CBC with differential, urinalysis) were collected and assessed for changes from baseline and out-of-range values. ECG, physical examination, and vital signs were obtained, and changes from baseline were assessed."}, "[5]": {"biological_target": "human α-glycoprotein", "assay": "Protein binding by isothermal titration microcalorimetry", "conditions": "for apparent binding affinity Ka: pH 7.4; for Calculated percent binding: α-glycoprotein […]10^−5M", "quoted_text": "Integrated heat effects, after correction for heats of dilution, were analyzed by non-linear regression using a simple single-site binding model with the standard Microcal ORIGIN software package. Raw data (μcal/sec) for each injection were integrated to give the total heat effect per addition, then divided by amount of injectant to give kcal/mole of injectant. The same integration was applied for control dilution effects, and this was subtracted from the actual titration data. This provided a differential of the binding curve in which the extent of binding is proportional to the total heat liberated (or absorbed). This was then analyzed by non-linear regression methods in terms of various standard binding models."}, "[6]": {"assay": "Rat mass balance study", "format": "in vivo, Sprague-Dawley rats", "description": "Mass balance studies were conducted to determine the excretion pattern of dalbavancin following a single intravenous (IV) infusion of dalbavancin in male rats.\nWater and methanol cage washes were also collected."}, "[7]": {"assay": "Rat quantitative tissue distribution (QTD) study", "format": "in vivo, Sprague-Dawley rats", "description": "Quantitative tissue distribution studies were conducted to assess the tissue distribution of dalbavancin following a single IV infusion of dalbavancin to male rats.\nAll samples were analyzed by LSC."}, "[8]": {"assay": "Stability of dalbavancin in plasma", "format": "in vitro ADME, human", "quoted_text": "A quality control standard of 1.5 μg/ml was prepared by spiking human plasma with an appropriate volume of a 50 μg/ml solution."}, "[9]": {"biological_target": "HSA (Homo sapiens, UniProt P02768)", "sequence (P02768 25-609)": "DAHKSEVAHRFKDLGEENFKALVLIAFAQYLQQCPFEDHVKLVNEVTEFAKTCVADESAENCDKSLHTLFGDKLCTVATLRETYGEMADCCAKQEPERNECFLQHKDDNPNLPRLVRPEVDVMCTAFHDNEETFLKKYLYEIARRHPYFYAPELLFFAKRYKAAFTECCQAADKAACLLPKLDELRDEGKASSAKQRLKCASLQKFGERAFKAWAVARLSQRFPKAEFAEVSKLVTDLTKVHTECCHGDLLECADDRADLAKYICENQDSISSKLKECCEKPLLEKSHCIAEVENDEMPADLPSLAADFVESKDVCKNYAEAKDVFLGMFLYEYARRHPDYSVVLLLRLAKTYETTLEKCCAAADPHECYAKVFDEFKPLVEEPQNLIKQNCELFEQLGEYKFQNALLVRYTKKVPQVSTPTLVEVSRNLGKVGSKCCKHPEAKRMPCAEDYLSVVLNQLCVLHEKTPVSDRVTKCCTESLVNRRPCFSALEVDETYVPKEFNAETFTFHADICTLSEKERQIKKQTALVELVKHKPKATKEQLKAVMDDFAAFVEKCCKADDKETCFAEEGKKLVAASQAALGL", "assay": "MALDI-TOF mass spectrometry of protein-dalbavancin complexes", "format": "binding", "conditions": "very high dalbavancin:protein ratios (1:2, 1:10)", "description": "The samples were prepared for analysis using the dried droplet technique. Spectra were obtained on a BRUKER FLEX III, tof mass spectrometer previously tuned and calibrated using standard bovine serum albumin, acquiring and averaging spectra generated by 200 laser shots. Matrix: 9 parts of DHB-9 (2,5-dihydroxy-benzoic acid) saturated in acetonitrile/H2O (50:50), 1 part of sinapinic acid saturated in acetonitrile/H2O (50:50). 0.5 μl of sample solution and 0.5 μl of matrix solution were mixed and placed on the laser target. [00179]"}, "[10]": {"assay": "ESI-MS of multimers in solution", "quoted_text": "Experiments were performed using an Applied Biosystem API III+mass spectrometer equipped with a TurboIonSpray source, a Triple Quadrupole analyzer, operating in positive ion mode.\nThe mass spectra were obtained in electrospray positive mode on a Finnigan LCQDeca ion trap instrument previously tuned and calibrated in electrospray mode using Ultramark 1621, caffeine and MRFA (L-metionyl-arginyl-phenilalanyl-arginine).\nThe mass spectra were obtained in electrospray positive mode on a Finnigan LCQ^Deca ion trap instrument previous tuned and calibrated in electrospray mode using Ultramark 1621, caffeine and MRFA (L-metionyl-arginyl-phenilalanyl-arginine)."}, "[11]": {"system": "N,N′-diacetyl-Lys-D-Ala-D-Ala", "assay": "ITC of binding to tri-peptide, with and without HSA"}}, "note": "“And” between values parts separate entries of the source, which are not always exact repeats. Identical values can stand only once. Like-named read-outs stand apart in the source and are kept apart here.", "data": [{"smiles": "CN[C@H]1C(=O)N[C@@H]2Cc3ccc(cc3)Oc3cc4cc(c3O[C@@H]3O[C@H](C(=O)O)[C@@H](O)[C@H](O)[C@H]3NC(=O)CCCCCCCCC(C)C)Oc3ccc(cc3Cl)[C@@H](O)[C@@H]3NC(=O)[C@H](NC(=O)[C@@H]4NC(=O)[C@@H](NC2=O)c2cc(cc(O)c2Cl)Oc2cc1ccc2O)c1ccc(O)c(c1)-c1c(O[C@H]2O[C@H](CO)[C@@H](O)[C@H](O)[C@@H]2O)cc(O)cc1[C@@H](C(=O)NCCCN(C)C)NC3=O", "note": "[Dalbavancin]", "values": [{"measurement": "Clinical success rate", "setting": "[1]; MITT at FU, patients with MRSA, single-dose", "result": 50, "unit": "%"}, {"measurement": "Clinical success rate", "setting": "[1]; MITT at FU, patients with MRSA, two-dose", "result": 80, "unit": "%"}, {"measurement": "Clinical success rate", "setting": "[1]; subanalysis: deep or complicated SSTI at baseline, single-dose", "result": 58.3, "unit": "%"}, {"measurement": "Clinical success rate", "setting": "[1]; subanalysis: deep or complicated SSTI at baseline, two-dose", "result": 93.8, "unit": "%"}, {"measurement": "Clinically significant hepatotoxicity or nephrotoxicity", "setting": "[2]; both dalbavancin regimens", "result": "no evidence"}, {"measurement": "Tolerability", "setting": "[2]; both doses", "result": "well tolerated"}, {"measurement": "peak concentration in man", "setting": "[3]; human, in vivo", "result": "~165", "unit": "µM"}, {"measurement": "CLR", "setting": "[3]; single 1000 mg IV, mean", "result": 0.018, "unit": "L/h"}, {"measurement": "VZ", "setting": "[3]; single 1000 mg IV, mean", "result": 16.0, "unit": "L"}, {"measurement": "plasma concentration maintained for at least seven days", "setting": "[3]; single intravenous infusion of 1000 mg", "result": "above 45 mg/l"}, {"measurement": "Subject deaths or serious adverse events", "setting": "[4]", "result": "No subject deaths or serious adverse events"}, {"measurement": "Tolerability", "setting": "[4]", "result": "well-tolerated"}, {"measurement": "Volunteers reporting AEs possibly related to study medication", "setting": "[4]; six subjects", "result": "Three"}, {"measurement": "apparent binding affinity Ka", "setting": "[5]; 25° C.", "result": "1.84 (±0.36) ×10^5 M^−1"}, {"measurement": "apparent binding affinity Ka", "setting": "[5]; 37° C.", "result": "4.8 (±2.3) ×10^5 M^−1"}, {"measurement": "Calculated percent binding", "setting": "[5]; antibiotic 1 μM", "result": 73.0, "unit": "%"}, {"measurement": "Calculated percent binding", "setting": "[5]; antibiotic 500 μM", "result": 5.9, "unit": "%"}, {"measurement": "dose remaining in the carcass", "setting": "[6]; 70 days post dose", "result": 4.5, "unit": "%"}, {"measurement": "plasma t1/2", "setting": "[6]; rat", "result": "approximately 1 week"}, {"measurement": "share of excreted radioactivity eliminated in feces", "setting": "[6]; single IV 20 mg/kg, male rats", "result": "⅓"}, {"measurement": "share of excreted radioactivity eliminated in urine", "setting": "[6]; single IV 20 mg/kg, male rats", "result": "⅔"}, {"measurement": "administered radioactivity eliminated in urine and feces", "setting": "[6]; within the first week", "result": "Approximately half"}, {"measurement": "dose recovered in the bile", "setting": "[7]; bile duct cannulated rats, over 384 h after the dose", "result": "~11", "unit": "%"}, {"measurement": "Concentrations of radioactivity in the CNS", "setting": "[7]; healthy animal model", "result": "low but detectable"}, {"measurement": "time by which all tissues had quantifiable drug-derived radioactivity", "setting": "[7]; post-infusion, 20 mg/kg IV", "result": "≤ 12", "unit": "h"}, {"measurement": "accumulation in tissue, organ or blood cellular component", "setting": "[7]; rat, in vivo", "result": "did not accumulate"}, {"measurement": "skin concentrations of drug-derived radioactivity", "setting": "[7]; relative to plasma", "result": "as high as or higher than in plasma"}, {"measurement": "Blood to plasma ratio of drug-derived radioactivity", "setting": "[7]; relatively constant over time", "result": "< 1"}, {"measurement": "Stability in processed plasma samples", "setting": "[8]; 24 hours at room temperature", "result": "stable"}, {"measurement": "Stability in human plasma, detectable concentration", "setting": "[8]; three cycles of freeze-thaw, 1.5 and 90 μg/ml", "result": "stable"}, {"measurement": "complex with HSA observed by MALDI-TOF", "setting": "[9]", "result": "2 molecules of dalbavancin per protein molecule"}, {"measurement": "Multimers in solution (ESI-MS)", "setting": "[10]", "result": "presence of dalbavancin multimers"}, {"measurement": "population ratio of multimer to monomer vs concentration", "setting": "[10]; 20, 40, 60, and 80 μg/mL", "result": "increases with increasing concentration"}, {"measurement": "population ratio of multimer to monomer vs ionic strength", "setting": "[10]; ammonium formate 5, 50, 100 mM, pH 5, increase in buffer concentration", "result": "decrease"}, {"measurement": "population ratio of multimer to monomer vs pH", "setting": "[10]; pH 2.5 to 5.5", "result": "increases with increasing pH"}, {"measurement": "weaker binding affinity than in the absence of HSA", "setting": "[11]; 25° C., plateau at high HSA", "result": "10-12 ×"}, {"measurement": "Kass", "setting": "[11]; T 25 ° C., [HSA] 104 μM", "result": 34900, "unit": "M⁻¹"}, {"measurement": "Kass", "setting": "[11]; T 25 ° C., [HSA] 288 μM", "result": 31000, "unit": "M⁻¹"}, {"measurement": "Kass", "setting": "[11]; T 25 ° C., [HSA] 430 μM", "result": 28400, "unit": "M⁻¹"}, {"measurement": "Kass", "setting": "[11]; T 37 ° C., [HSA] 0 μM", "result": "130000 M⁻¹ and 110000 M⁻¹"}, {"measurement": "Kass", "setting": "[11]; T 37 ° C., [HSA] 516 μM", "result": 9568, "unit": "M⁻¹"}, {"measurement": "Kd", "setting": "[11]; read-out: Kdiss (preliminary experiments), absence of serum proteins, depending on temperature", "result": "1 to 10", "unit": "µM"}, {"measurement": "Kd", "setting": "[11]; read-out: Kdiss, T 25 ° C., [HSA] 288 μM", "result": 32.3, "unit": "µM"}, {"measurement": "Kd", "setting": "[11]; read-out: Kdiss, T 37 ° C., [HSA] 0 μM", "result": "7.69 µM and 9.09 µM"}, {"measurement": "Kd", "setting": "[11]; read-out: Kdiss, T 37 ° C., [HSA] 516 μM", "result": 105, "unit": "µM"}]}]}
